Test results as given in patent US6632794B1, “Insulin-like growth factor agonist molecules” (Genentech, Inc., priority 1997, dated 2003).

What was measured:
Format in all cases: in vivo, rat
[1] = test system: dwarf rats; assay: Long-term administration to GH-deficient dwarf (dw/dw) rats; settings: for retroperitoneal fat depot weight: at sacrifice; for AST / BUN / CK / Creatinine / Glucose / Insulin: serum at sacrifice, Means ± SEM
Description: Young female dwarf rats (11-12 wk of age, 115-140 g) were bred by homozygous mating (Charles Rivers Laboratories) and delivered to the Genentech Animal House where they were housed five per cage on polystyrene chips and fed a standard animal chow and water ad libitum, and kept in a room of constant humidity and with controlled temperature and lighting. The animals were weighed, and based on uniformity of body weight, 37 of the animals were selected and randomized into treatment groups and cages to give six treatment groups of equal initial body weights (approximately 120 g).
The study consisted of six groups of rats with six or seven rats per group.
The mutant (Leu^24,Ala^31)hIGF-I and native sequence recombinant human IGF-I were administered by osmotic minipumps (ALZET 2001™, Alza, Palo Alto, Calif.) which were placed in a subcutaneous tunnel in the dorsal neck region while the rats were anesthetized with KETAMINE/XYLAZINE™ anesthesia. The pumps were filled with solutions so that the calculated daily dose was 120 μg per rat per day (1 mg/kg/day), assuming that the pump delivered as per the manufacturer's description (24 μl of solution per day).
Recombinant human GH (50 μg/day) was administered for eight days by twice daily sc injection, with each injection being of 25 μg in a volume of 100 μl.
Body weights were measured daily in the morning. After 8 days the animals were anesthetized using CO2 and exsanguinated by cardiac puncture. The remaining blood was allowed to clot and serum was separated and stored for further analysis.
Spleen, thymus, heart, liver, kidney, and perirenal fat were removed and weighed. The tibia was removed and fixed in neutral buffered formalin for histological measurement of epiphyseal plate width.
Serum chemistries were measured using a TECHNICON CHEM I PLUS™ analyzer. Serum insulin concentration was measured using an RIA kit supplied by Linco, Inc. To measure the IGF-I concentrations the serum was extracted using acid ethanol and the supernatant diluted to neutrality and assayed for IGF-I by RIA. The concentration of rat IGF-I in serum extract was measured by RIA using a kit from Diagnostic Systems Laboratories, Inc. Human IGF-I concentration was measured by RIA at Genentech, Inc.
Tibia were sectioned longitudinally, stained with TOLULENE BLUE™ stain and mounted on microscope slides. The tibial epiphyseal plate width was measured using an ocular micrometer attached to a microscope.
Data were analyzed statistically by analysis of variance using one-factor ANOVA followed by Duncan's Range Test.

[2] = test system: Zucker Diabetic Fatty rats; assay: IV bolus injection into diabetic rats, plasma glucose and insulin; settings: ZDF rats, 100 μg IV; for fall in blood glucose: after 10 minutes
Description: Eighteen 7-week-old male Zucker Diabetic Fatty rats (250-300 g, Genetic Models Inc.) were anesthetized using KETAMINE™ (62.5 mg/kg)/ROMPUN XYLAZINE™ (12.5 mg/kg) anesthesia. The right jugular vein was cannulated using a silicone rubber catheter and the rats were allowed to recover.
Two days after surgery the rats (5-6/group) were divided into three treatment groups and given IV via the jugular catheter 200 μl of:
Three days later, using the same rats the study was repeated. The rats that were dosed with IGF-I in the initial study received the IGF mutant in the repeat study and vice versa. Control animals received PBS in both experiments.
Two blood samples were collected from each rat via the jugular cannula prior to IV dosing with the hormones and then blood samples were collected after 10, 30, 60, and 120 minutes. The plasma was immediately separated by centrifugation. The glucose concentration was measured by a coupled hexokinase procedure using a Chem 1A serum chemistry analyzer. Insulin concentration was measured using a rat insulin RIA kit (Linco Research, Inc., St. Charles, Mo.).
Statistical comparisons for each time point were made by an ANOVA with a Duncan's Multiple Range test. A p value of <0.05 was considered as being statistically significant. All data are represented as the mean±SEM, with five or six animals per treatment group.

[3] = test system: Zucker Diabetic Fatty (ZDF) rats; assay: Long-term administration to diabetic rats incl. glucose tolerance test; settings: for change in blood glucose two hours following the glucose challenge: glucose tolerance test day 14, 2 g/kg ip, 150 μg tid
Description: Obese male Zucker Diabetic Fatty (ZDF) rats (6-7 weeks of age, 225-250 g, Genetic Models Inc., Indianapolis, Ind. 46268) were group housed (3/cage) in a room controlled for temperature and lighting and fed the pelleted rat diet specified by the breeders (Purina 5008, 6% fat breeder chow) and tap water ad libitum. After three days acclimation, a blood sample was obtained from the tail vein for measurement of blood glucose and insulin, which was measured by rat-specific RIA (Linco Research Inc., St. Charles, Mo.). Animals were randomized into four treatment groups and into cages to give groups balance so as to have equivalent initial blood glucose levels, insulin levels, and body weights.
The experiment consisted of four groups of rats with seven rats per group.
1.0 The mutant (Leu^24,Ala^31)hIGF-I was prepared at two concentrations (1.5 mg/ml, and 0.5 mg/ml) so that with three injections per day two doses were given (a total of 450 μg/d or 150 μg/d). rhIGF-I was prepared at one concentration (1.5 mg/ml) so that with three injections per day one dose was given (450 μg/d). A fourth group of rats were given the excipient. The injections, each of 100 μl volume, were given at 7am, 1pm, and 7pm for 15 days without disrupting the controlled diurnal lighting of the vivarium room. Body weights were measured each day at 1 pm.
Blood samples were collected from non-fasted rats on the evening before the first day of dosing and on days 3, 7, and 10. Blood samples (400 μl) on days 3, 7, and 10 were taken by bleeding from a tail vein one hour after the mid-day injection. The blood was allowed to clot, and serum was separated and stored before analysis.
A glucose tolerance test was performed on day 14 of the study. Rats received their regular morning injection and then their food was withdrawn. After a 3-5-hour fast a blood sample (400 μl) was taken via the tail vein. Rats then received 2 g/kg dextrose(50%) by intraperitoneal (ip) injection. A blood sample (200 μl) was taken via tail vein at 10, 60, and 120 minutes after dextrose administration. Blood was allowed to clot and serum was separated and stored for measurement of glucose and insulin concentrations. After the glucose tolerance test was completed, animals were re-fed.
On day 15, one hour after the morning injection, rats were asphyxiated with carbon dioxide and bled by cardiac puncture. Blood was allowed to clot and serum was separated and frozen. Spleen, thymus, heart, liver, kidney, and perirenal fat were removed, blotted dry, and immediately weighed.
Statistical comparisons for each time point were made by an analysis of variance with a Duncan's Multiple Range test. A p value of <0.05 was considered as being statistically significant. All data are represented as the mean +SEM, with seven animals per treatment group.

[4] = Day one, 120 μg/day each by pump
[5] = Day 10, 150 μg three times a day
[6] = day 13, 150 μg three times a day SC
[7] = glucose tolerance test day 14, 150 μg tid

Substance	epiphyseal plate widths ([1]; 8 days)	body weight gain [1, 4]	retroperitoneal fat depot weight ([1]; 120 μg/day each by pump)	AST ([1]; 8 days)	BUN ([1]; 8 days)	CK ([1]; 8 days)	Creatinine ([1]; 8 days)	Glucose ([1]; 8 days)	Insulin ([1]; 8 days)	plasma insulin response ([2]; Study One)	fall in blood glucose ([2]; Study One)	rise in blood glucose, percentage change from basal [3, 5]	body weight gain [3, 6]	insulin in response to the glucose challenge [3, 7]	change in blood glucose two hours following the glucose challenge [3]	further results
(Leu^24,Ala^31)hIGF-I	increased the mean plate widths compared to the individual treatments, but these increases did not reach statistical significance	0.5 ± 0.6 g	0.53 ± 0.10 g	143 ± 8 U/l	17.8 ± 0.4 mg/dL	301 ± 44 u/l	0.23 ± 0.03 mg/dL	174 ± 18 mg/dL	0.88 ± 0.09 ng/mL	suppressed blood insulin concentrations	smaller, but statistically significant	74±22%	105.1 ± 2.3 g	10.6 ± 0.6 ng/mL	59 ± 11 mg/dL	blood levels of endogenous rat IGF-I ([1]; 8 days): lower; absolute spleen weight ([1]; 8 days, 120 μg/day by pump): 350 ± 14 mg; body weight gain ([1]; day 6, 120 μg/day by pump): 4.2 ± 0.6 g; rise in blood glucose, percentage change from basal ([3]; Day 10, 50 μg three times a day): 84±20%; body weight gain ([3]; day 13, 50 μg three times a day SC): 100 ± 2.1 g; insulin in response to the glucose challenge ([3]; glucose tolerance test day 14, 50 μg tid): 10.2 ± 0.7 ng/mL
IGF-I: native-sequence recombinant human insulin-like growth factor-I (Genentech)	significantly (p<0.05) increased	1.2 ± 0.4 g	0.48 ± 0.06 g	128 ± 11 U/l	16.0 ± 0.7 mg/dL	225 ± 18 u/l	0.22 ± 0.05 mg/dL	190 ± 24 mg/dL	0.54 ± 0.06 ng/mL	large, and maintained fall in plasma insulin	immediate, moderate, and statistically significant	25±10%	114.5 ± 1.6 g	12.2 ± 0.7 ng/mL	39 ± 12 mg/dL	plasma insulin response ([2]; Study Two): large, and maintained fall in plasma insulin; fall in blood glucose ([2]; Study Two): immediate, moderate, and statistically significant
